# Assay results published in patent US12173007B2, “Imidazopyridazine IL-17 inhibitor compounds” (Janssen Pharmaceutica NV, priority 2021, dated 2024).
# pIC50: −log10 of the molar value.
# Tests used:
# [1] = biological target: T1, IL-17A(FLAG-Tagged): IL-17RA(His-Tagged) binding (Homo sapiens, UniProt Q16552, K93Q); experiment: IL-17A(FLAG-tagged):IL-17RA(His-tagged) binding disruption Eu-HTRF assay, Protocol 1; details: FLAG-IL-17A 2.5 nM; average if tested more than once
# Source text: IL-17A(FLAG-Tagged): IL-17RA(His-Tagged) Binding Disruption Eu-HTRF Assay
# An antibody directed against the FLAG tag of IL-17A (SEQ ID NO: 1) is labeled with the HTRF donor chromophore (Europium-cryptate). IL-17A is present as a dimer that is “locked into” this quaternary structure due to the formation of loop-spanning […] disulfide bridges. The construct of IL-17RA used in the assay excludes the […] portion of the receptor and is fused to a C-terminal 10×His tag (SEQ ID NO:2). An antibody directed against the His tag of the IL-17RA chimera is labeled with the HTRF acceptor chromophore (“D2”). The fluorescence-resonance energy transfer (FRET) depends on the vicinity of the donor chromophore to the acceptor, and interruption of the binding between the IL-17A and IL-17RA causes the reduction/loss of FRET. Therefore, this assay allows to evaluate the compound effect on the binding IL-17A and IL-17RA by monitoring the fluorescence intensity of donor vs acceptor. The assay was run using either Protocol 1 or Protocol 2 as described below.
# Protocol 1. 40 nl of 2-fold serial diluted compound solution for total 22 dilution points is added into each well of a 1536-well, white, low-volume, non-binding plate (Greiner #782904), then 2 μl of FLAG tagged IL-17A at 2×final concentration (2.5 nM) in solution of PBS+0.01% Triton-X100 is added to each well. The assay plate is briefly centrifuged then incubated for 1 h at rt. A mixed solution is prepared containing 2×5 nM 10HIS×IL-17RA, 2×2.5 nM Eu-anti-FLAG (CISBIO), 2×5 nM D2-anti-HIS (CISBIO) in PBS+0.01% Triton-X100+200 mM Potassium Fluoride (Sigma 60238) and 2 μl of mix is added to each well of the assay plate. The plate is briefly centrifuged then incubated for 2 h at rt. The HTRF intensities at the wavelength of donor (620 nm) and acceptor (665 nm) are measured using BMG Pherastar. The ratio between intensities at two wavelengths is calculated and plotted against the compound concentration and the data is fitted to a one-site competition model to yield IC50 of the compound.
# [2] = tested on: IL-17A-induced G-CSF production in human normal keratinocyte (NHK); experiment: NHK assay: IL-17A-induced G-CSF production in normal human keratinocytes; type: cell-based; details: 24 h, IL-17A 5 ng/mL, G-CSF by HTRF, average if tested more than once
# How it was run: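 Stimulus rhIL-17A 5 ng/mL final, premixed 1 h rt with compound; adult NHK, 5% FBS, 0.2% DMSO. Viability by CellTiter-Glo vs DMSO.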
# [3] = biological target: T1, IL-17A(FLAG-Tagged): IL-17RA(His-Tagged) binding; experiment: IL-17A(FLAG-tagged):IL-17RA(His-tagged) binding disruption Eu-HTRF assay, Protocol 2; details: FLAG-IL-17A 1 nM; average if tested more than once
# How it was run: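 FLAG-tagged IL-17A (1 nM final) was preincubated with compound (2-fold serial dilutions, 22 points) for 1 h at rt in PBS + 0.01% Triton X-100. 10×His-IL-17RA, Eu-anti-FLAG and D2-anti-His in buffer containing KF were then added for 2 h at rt. IC50 came from the 665/615 nm HTRF ratio fitted to a one-site competition model.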
# T1 sequence (Q16552 with tags, fused parts or gaps K93Q): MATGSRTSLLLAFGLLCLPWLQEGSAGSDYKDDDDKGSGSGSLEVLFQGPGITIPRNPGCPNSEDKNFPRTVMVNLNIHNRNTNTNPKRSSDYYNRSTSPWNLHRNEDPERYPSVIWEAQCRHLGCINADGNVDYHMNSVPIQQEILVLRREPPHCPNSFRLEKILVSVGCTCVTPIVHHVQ
SMILES,pIC50 [1],"pIC50 ([2]; Homo sapiens, Keratinocyte)",pIC50 [2],pIC50 [3]
"CC1(C)CNC(=O)N(Cc2cnn3cc([C@@H](NC(=O)c4nonc4C4CC4)C4CCC(F)(F)CC4)nc3c2)C1 [Example 33, (S)-4-Cyclopropyl-N-((4,4-difluorocyclohexyl)(7-((5,5-dimethyl-2-oxotetrahydropyrimidin-1(2H)-yl)methyl)imidazo[1,2-b]pyridazin-2-yl)methyl)-1,2,5-oxadiazole-3-carboxamide]",7.00 to 7.30,< 7.00,–,–
"Cc1nonc1C(=O)N[C@H](c1cn2ncc([C@@H](C3CC3)N3CC(F)(F)CNC3=O)cc2n1)C1CCC(F)(F)CC1 [Example 8, N—((S)-(7-((R)-Cyclopropyl(5,5-difluoro-2-oxotetrahydropyrimidin-1(2H)-yl)methyl)imidazo[1,2-b]pyridazin-2-yl)(4,4-difluorocyclohexyl)methyl)-4-methyl-1,2,5-oxadiazole-3-carboxamide]",> 7.30,7.00 to 7.30,–,–
"CC(C)(OC[C@H](NC(=O)c1nonc1C1CC1)c1cn2ncc(CN3CC(F)(F)CNC3=O)cc2n1)C(F)(F)F [Example 17, (R)-4-Cyclopropyl-N-(1-(7-((5,5-difluoro-2-oxotetrahydropyrimidin-1(2H)-yl)methyl)imidazo[1,2-b]pyridazin-2-yl)-2-((1,1,1-trifluoro-2-methylpropan-2-yl)oxy)ethyl)-1,2,5-oxadiazole-3-carboxamide]",> 7.30,> 7.30,–,–
"[2H]C([2H])([2H])C([2H])([2H])n1nccc1C(=O)N[C@H](c1cn2ncc([C@@H](C3CC3)N3CC(F)(F)CNC3=O)cc2n1)C1CCC(F)(F)CC1 [Example 9, N—((S)-(7-((R)-Cyclopropyl(5,5-difluoro-2-oxotetrahydropyrimidin-1(2H)-yl)methyl)imidazo[1,2-b]pyridazin-2-yl)(4,4-difluorocyclohexyl)methyl)-1-(ethyl-d5)-1H-pyrazole-5-carboxamide]",> 7.30,> 7.30,–,–
"CC(C)n1nccc1C(=O)N[C@H](c1cn2ncc([C@@H](C3CC3)N3CC(F)(F)CNC3=O)cc2n1)C1CCC(F)(F)CC1 [Example 10, N—((S)-(7-((R)-Cyclopropyl(5,5-difluoro-2-oxotetrahydropyrimidin-1(2H)-yl)methyl)imidazo[1,2-b]pyridazin-2-yl)(4,4-difluorocyclohexyl)methyl)-1-isopropyl-1H-pyrazole-5-carboxamide]",7.00 to 7.30,> 7.30,–,–
"CC1(F)CNC(=O)N(Cc2cnn3cc([C@@H](NC(=O)c4nonc4C4CC4)C4CCC(F)(F)CC4)nc3c2)C1 (single isomer, unassigned) [Example 1, 4-Cyclopropyl-N—((S)-(4,4-difluorocyclohexyl)(7-(((R*)-5-fluoro-5-methyl-2-oxotetrahydropyrimidin-1(2H)-yl)methyl)imidazo[1,2-b]pyridazin-2-yl)methyl)-1,2,5-oxadiazole-3-carboxamide]",> 7.30,< 7.00,–,–
"CC(C)n1nccc1C(=O)N[C@H](c1cn2ncc(CN3CC(F)(F)CNC3=O)cc2n1)C1CCC(F)(F)CC1 [Example 21, (S)—N-((7-((5,5-Difluoro-2-oxotetrahydropyrimidin-1(2H)-yl)methyl)imidazo[1,2-b]pyridazin-2-yl)(4,4-difluorocyclohexyl)methyl)-1-isopropyl-1H-pyrazole-5-carboxamide]",< 7.00,> 7.30,–,–
"O=C(N[C@H](c1cn2ncc(CN3CC(C(F)(F)F)CNC3=O)cc2n1)C1CCC(F)(F)CC1)c1nonc1C1CC1 (single isomer, unassigned) [Example 6, 4-Cyclopropyl-N—((S)-(4,4-difluorocyclohexyl)(7-(((R*)-2-oxo-5-(trifluoromethyl)tetrahydropyrimidin-1(2H)-yl)methyl)imidazo[1,2-b]pyridazin-2-yl)methyl)-1,2,5-oxadiazole-3-carboxamide]",< 7.00,< 7.00,–,–
"CC(C)n1ncnc1C(=O)N[C@H](c1cn2ncc(CN3CC(F)(F)CNC3=O)cc2n1)C1CCC(F)(F)CC1 [Example 23, (S)—N-((7-((5,5-Difluoro-2-oxotetrahydropyrimidin-1(2H)-yl)methyl)imidazo[1,2-b]pyridazin-2-yl)(4,4-difluorocyclohexyl)methyl)-1-isopropyl-1H-1,2,4-triazole-5-carboxamide]",< 7.00,< 7.00,–,–
"COC[C@H](c1cnn2cc([C@@H](NC(=O)c3nonc3C)C3CCC(F)(F)CC3)nc2c1)N1CC(F)(F)CNC1=O [Example 12, N—((S)-(7-((S)-1-(5,5-Difluoro-2-oxotetrahydropyrimidin-1(2H)-yl)-2-methoxyethyl)imidazo[1,2-b]pyridazin-2-yl)(4,4-difluorocyclohexyl)methyl)-4-methyl-1,2,5-oxadiazole-3-carboxamide]",> 7.30,> 7.30,–,–
"CC(C)n1nccc1C(=O)N[C@H](c1cn2ncc(CN3CCCNC3=O)cc2n1)C1CCC(F)(F)CC1 [Example 19, (S)—N-((4,4-Difluorocyclohexyl)(7-((2-oxotetrahydropyrimidin-1(2H)-yl)methyl)imidazo[1,2-b]pyridazin-2-yl)methyl)-1-isopropyl-1H-pyrazole-5-carboxamide]",< 7.00,< 7.00,–,–
"CC1(F)CNC(=O)N(Cc2cnn3cc([C@@H](NC(=O)c4nonc4C4CC4)C4CCC(F)(F)CC4)nc3c2)C1 (single isomer, unassigned) [Example 2, 4-Cyclopropyl-N—((S)-(4,4-difluorocyclohexyl)(7-(((S*)-5-fluoro-5-methyl-2-oxotetrahydropyrimidin-1(2H)-yl)methyl)imidazo[1,2-b]pyridazin-2-yl)methyl)-1,2,5-oxadiazole-3-carboxamide]",7.00 to 7.30,–,< 7.00,–
"CC1CCCN(Cc2cnn3cc([C@@H](NC(=O)c4ccnn4C(C)C)C4CCC(F)(F)CC4)nc3c2)C(=O)N1 (single isomer, unassigned) [Example 94, N—((S)-(4,4-Difluorocyclohexyl)(7-(((R*)-4-methyl-2-oxo-1,3-diazepan-1-yl)methyl)imidazo[1,2-b]pyridazin-2-yl)methyl)-1-isopropyl-1H-pyrazole-5-carboxamide]",< 7.00,< 7.00,–,–
"O=C(N[C@H](c1cn2ncc(CN3CC(F)(F)CNC3=O)cc2n1)C1CCC(F)(F)CC1)c1nonc1C1CC1 [Example 20, (S)-4-Cyclopropyl-N-((7-((5,5-difluoro-2-oxotetrahydropyrimidin-1(2H)-yl)methyl)imidazo[1,2-b]pyridazin-2-yl)(4,4-difluorocyclohexyl)methyl)-1,2,5-oxadiazole-3-carboxamide]",> 7.30,> 7.30,–,–
"[2H]C1([2H])NC(=O)N([C@H](COC2CC2)c2cnn3cc([C@@H](NC(=O)c4ccnn4C(C)C)C4CCC(F)(F)CC4)nc3c2)C([2H])([2H])C1(F)F [Example 71, N—((S)-(7-((S)-2-Cyclopropoxy-1-(5,5-difluoro-2-oxotetrahydropyrimidin-1(2H)-yl-4,4,6,6-d4)ethyl)imidazo[1,2-b]pyridazin-2-yl)(4,4-difluorocyclohexyl)methyl)-1-isopropyl-1H-pyrazole-5-carboxamide]",–,> 7.30,–,> 7.30
"COC[C@H](c1cnn2cc([C@H](CCC(C)(C)C(F)(F)F)NC(=O)c3nonc3OC)nc2c1)N1CC(F)(F)CNC1=O [Example 109, N—((S)-1-(7-((S)-1-(5,5-Difluoro-2-oxotetrahydropyrimidin-1(2H)-yl)-2-methoxyethyl)imidazo[1,2-b]pyridazin-2-yl)-5,5,5-trifluoro-4,4-dimethylpentyl)-4-methoxy-1,2,5-oxadiazole-3-carboxamide]",–,> 7.30,–,> 7.30
